Results as given in patent EP4635944A1, “2-AZABICYCLO[3.1.1]HEPTANE COMPOUND” (Daiichi Sankyo Company, Limited, priority 2022, dated 2024).

Key:
[1] = target: T1, human OX2R (Homo sapiens, UniProt O43614); assay: Evaluation of OX2R agonist activity (intracellular calcium, CHO-K1 cells with forced expression of human OX2R); format: cell-based; conditions: CHO-K1 cells expressing human OX2R; 100% = 5 µM of the reference compound; read-out: hOX2R EC50
T1 construct: host or cells: CHO-K1 (Chinese Hamster Ovary K1)
T1 sequence (O43614 1-444): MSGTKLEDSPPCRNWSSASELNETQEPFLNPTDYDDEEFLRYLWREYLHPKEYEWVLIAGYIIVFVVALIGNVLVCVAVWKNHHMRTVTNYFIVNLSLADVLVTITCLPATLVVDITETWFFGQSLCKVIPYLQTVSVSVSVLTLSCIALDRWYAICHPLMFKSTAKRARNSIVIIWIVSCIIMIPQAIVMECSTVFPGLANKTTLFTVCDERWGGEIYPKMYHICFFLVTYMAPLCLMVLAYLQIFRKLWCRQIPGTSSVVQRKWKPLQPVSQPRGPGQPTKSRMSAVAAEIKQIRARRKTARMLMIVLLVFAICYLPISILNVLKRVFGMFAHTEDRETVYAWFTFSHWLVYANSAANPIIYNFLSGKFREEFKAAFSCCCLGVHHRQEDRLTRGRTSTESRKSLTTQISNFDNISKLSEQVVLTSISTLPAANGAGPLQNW
Method in brief: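 Cells seeded 7500/well, cultured 24 h, loaded with Fluo 4-AM (2.5 µg/mL final) plus probenecid for 30 min. Calcium response read as 480/540 nm excitation ratio; max–min signal 5–7 s after compound addition, normalized to buffer (0%) and 5 µM reference agonist (100%). EC50 from concentration series; 0.5% DMSO final.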

[2] = Evaluation of ERM production (GSH adduct detection in human liver microsomes); format: in vitro ADME; conditions: test compound 500 µM, human liver microsomes 2 mg/mL, GSH/SI-GSH, 37°C for 60 minutes; negative = no metabolite GSH adduct pair peak
Procedure: Evaluation of ERM production from OX2R agonist
The test compound (final concentration was 500 µM, dissolved in DMSO/acetonitrile = 1/9), pooled human liver microsomes (final concentration was 2 mg/mL), L-glutathione reduced (GSH, final concentration was 0.5 mM), potassium phosphate buffer (pH 7.4, final concentration was 100 mM), and stable isotope labeled GSH (SI-GSH, final concentration was 0.5 mM) were admixed and preincubated at 37°C for 3 minutes. Thereafter, a mixed solution of glucose-6-phosphate (final concentration was 25 mM), β-nicotinamide adenine dinucleotide phosphate (final concentration was 0.25 mM), glucose-6-phosphate dehydrogenase (final concentration was 2 U/mL), and magnesium chloride (final concentration was 10 mM) was added, and incubation was performed at 37°C for 60 minutes. After the incubation, the reaction was stopped by adding a 2-fold volume of acetonitrile. A portion of the supernatant after centrifugation (about 1200 × g, 4°C, 15 minutes) was injected into a liquid chromatograph quadrupole time-of-flight mass spectrometer (Q-Tof) for analysis. The mass number of metabolites, GSH adduct and SI-GSH adduct, predicted from the chemical structural formula of the test compound was calculated, and the presence of the corresponding peaks in the measurement sample was checked. Peaks with the same retention time and approximately equal peak area of the detected peaks of the metabolites, GSH adduct and SI-GSH adduct, were extracted as pair peaks. The presence of a pair peak determined to be a metabolite GSH adduct was considered positive for ERM production potential, whereas the absence of such a peak was considered negative for ERM production potential.

For `CC(C)(O)C(=O)N1C2CC(F)(C2)[C@H](NS(C)(=O)=O)[C@@H]1Cc1cc(F)cc(-c2cccc(Cl)c2)c1F` [Example 77, N-[(3S,4R)-3-[(3'-Chloro-2,5-difluoro[biphenyl]-3-yl)methyl]-5-fluoro-2-(2-hydroxy-2-methylpropanoyl)-2-azabicyclo[3.1.1]heptan-4-yl]methanesulfonamide], the EC50 [1] was 46 nM and the ERM production potential [2] was “negative”.
For `[2H]C([2H])([2H])C([2H])(O)C(=O)N1C2CC(C2)C(NS(=O)(=O)CC)C1Cc1cc(F)cc(-c2ccccc2)c1F` (single isomer, unassigned) [Example 92, N-{3-[(2,5-Difluoro[biphenyl]-3-yl)methyl]-2-[2-hydroxy(^2H4)propanoyl]-2-azabicyclo[3.1.1]heptan-4-yl}ethanesulfonamide], the EC50 [1] was 20 nM and the ERM production potential [2] was “negative”.
For `[2H]C([2H])([2H])[C@@]([2H])(O)C(=O)N1C2CC(C2)[C@H](NS(=O)(=O)CC)[C@@H]1Cc1cccc(-c2ccccc2)c1F` [Example 94, N-{(3S,4S)-3-[(2-Fluoro[biphenyl]-3-yl)methyl]-2-[(2R)-2-hydroxy(^2H4)propanoyl]-2-azabicyclo[3.1.1]heptan-4-yl}ethanesulfonamide], the EC50 [1] was 22 nM and the ERM production potential [2] was “negative”.
In the case of `CC(C)(O)C(=O)N1C2CC(C2)[C@H](NS(C)(=O)=O)[C@@H]1Cc1cccc(-c2ccccc2)c1F` [Example 10, N-[(3S,4S)-3-[(2-Fluoro[biphenyl]-3-yl)methyl]-2-(2-hydroxy-2-methylpropanoyl)-2-azabicyclo[3.1.1]heptan-4-yl]methanesulfonamide], the EC50 [1] is reported as 297 nM and the ERM production potential [2] is reported as “negative”.
For `C[C@@H](O)C(=O)N1C2CC(C2)[C@H](NS(C)(=O)=O)[C@@H]1Cc1cccc(-c2ccn(C)n2)c1F` [Example 32, N-{(3S,4S)-3-[2-Fluoro-3-(1-methyl-1H-pyrazol-3-yl)benzyl]-2-[(2R)-2-hydroxypropanoyl]-2-azabicyclo[3.1.1]heptan-4-yl}methanesulfonamide], the EC50 [1] was 535 nM and the ERM production potential [2] was “negative”.
In the case of `CC(C)(O)C(=O)N1C2CC(C2)C(NS(C)(=O)=O)C1Cc1cc(F)cc(-c2ccccc2)c1F` (single isomer, unassigned) [Example 59, N-[(3S,4S)-3-[(2,5-Difluoro[biphenyl]-3-yl)methyl]-2-(2-hydroxy-2-methylpropanoyl)-2-azabicyclo[3.1.1]heptan-4-yl]methanesulfonamide or N-[(3R,4R)-3-[(2,5-difluoro[biphenyl]-3-yl)methyl]-2-(2-hydroxy-2-methylpropanoyl)-2-azabicyclo[3.1.1]heptan-4-yl]methanesulfonamide], the EC50 [1] is reported as 88 nM and the ERM production potential [2] is reported as “negative”.
